In ChEMBL document CHEMBL1152046, “Pyrrolooctahydroisoquinolines as potent and selective opioid receptor ligands: SAR analysis and docking studies” (Bioorg Med Chem Lett, 1997):

Columns and labels:
[1] = biological target: Kappa-type opioid receptor (Mus musculus, UniProt P33534); experiment: Binding affinity against Kappa opioid receptor using [3H]U-69593 radioligand in mouse brain homogenates; format: tissue-based
[2] = biological target: Mu-type opioid receptor (Mus musculus, UniProt P42866); experiment: Inhibition of [3H]DAMGO from mouse brain homogenate Mu opioid receptor
[3] = biological target: Delta-type opioid receptor (Mus musculus, UniProt P32300); experiment: inhibition of [3H]DADLE binding to delta-opioid receptor of mouse brain homogenates
Sequence of Delta-type opioid receptor (P32300 whole entry): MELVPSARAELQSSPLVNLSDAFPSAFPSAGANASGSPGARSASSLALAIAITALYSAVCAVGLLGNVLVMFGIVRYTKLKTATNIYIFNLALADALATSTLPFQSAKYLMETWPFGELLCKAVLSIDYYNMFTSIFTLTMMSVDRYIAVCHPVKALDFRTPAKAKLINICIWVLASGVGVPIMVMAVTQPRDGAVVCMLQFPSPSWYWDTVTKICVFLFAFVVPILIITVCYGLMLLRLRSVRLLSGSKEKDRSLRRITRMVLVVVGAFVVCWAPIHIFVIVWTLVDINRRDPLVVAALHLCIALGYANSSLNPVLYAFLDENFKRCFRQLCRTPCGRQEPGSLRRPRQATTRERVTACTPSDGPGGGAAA

Sequence of Kappa-type opioid receptor (P33534 whole entry): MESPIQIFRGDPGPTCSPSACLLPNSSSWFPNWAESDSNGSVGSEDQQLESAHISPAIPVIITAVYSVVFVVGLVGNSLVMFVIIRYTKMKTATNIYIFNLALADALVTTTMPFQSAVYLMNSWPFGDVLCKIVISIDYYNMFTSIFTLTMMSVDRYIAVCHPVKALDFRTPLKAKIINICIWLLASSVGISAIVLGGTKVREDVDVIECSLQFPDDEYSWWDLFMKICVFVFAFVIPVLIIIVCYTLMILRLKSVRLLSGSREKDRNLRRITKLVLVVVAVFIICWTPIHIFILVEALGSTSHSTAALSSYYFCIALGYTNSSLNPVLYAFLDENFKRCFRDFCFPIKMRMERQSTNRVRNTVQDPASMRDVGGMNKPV
Sequence of Mu-type opioid receptor (P42866 whole entry): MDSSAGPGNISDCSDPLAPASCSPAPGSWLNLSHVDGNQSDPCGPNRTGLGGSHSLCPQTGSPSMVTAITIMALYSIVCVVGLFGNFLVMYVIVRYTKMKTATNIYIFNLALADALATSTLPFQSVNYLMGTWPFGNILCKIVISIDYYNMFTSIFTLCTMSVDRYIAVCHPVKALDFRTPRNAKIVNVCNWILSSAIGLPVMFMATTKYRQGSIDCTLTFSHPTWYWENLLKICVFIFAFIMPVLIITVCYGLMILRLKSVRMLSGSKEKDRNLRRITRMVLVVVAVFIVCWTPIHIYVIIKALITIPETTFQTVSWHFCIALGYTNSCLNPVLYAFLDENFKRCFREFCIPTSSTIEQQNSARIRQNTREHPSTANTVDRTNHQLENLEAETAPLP

| Structure (SMILES) | Ki [1] [nM] | Ki [2] [nM] | Ki [3] [nM] |
| --- | --- | --- | --- |
| CCOC(=O)c1[nH]c2c(c1C)C[C@@]1(c3cccc(O)c3)CCN(CC)C[C@@H]1C2 | 169 | 141 | 2.4 |
| CCN1CC[C@]2(c3cccc(O)c3)Cc3[nH]c(C(=O)N(CC)CC)c(C)c3C[C@H]2C1 |  |  | 0.95 |
| CCN1CC[C@]2(c3cccc(O)c3)Cc3[nH]c(C(=O)N(C)C)c(C)c3C[C@H]2C1 | > 1000 | 580 | 6.8 |
| CCN1CC[C@]2(c3cccc(O)c3)Cc3[nH]c(C(=O)N(C(C)C)C(C)C)c(C)c3C[C@H]2C1 | > 1000 | 57.9 | 2.6 |
| CN1CC[C@]2(c3cccc(O)c3)Cc3nc4ccccc4cc3C[C@H]2C1 | 312 | 59.6 | 0.23 |
| CCN(CC)C(=O)c1[nH]c2c(c1C)C[C@@]1(c3cccc(O)c3)CCN(C)C[C@@H]1C2 | > 1000 | 89.4 | 3 |
| CCN1CC[C@]2(c3cccc(O)c3)Cc3c([nH]c(C(=S)N(CC)CC)c3C)C[C@H]2C1 | 449 | 42 | 1.5 |
| CCN1CC[C@]2(c3cccc(O)c3)Cc3[nH]c(C(N)=O)c(C)c3C[C@H]2C1 | 70.4 | 139 | 15.1 |
